Measurements reported in patent US20100216779A1 (GLAXOSMITHKLINE LLC, priority 2007, published 2010).

Legend:
human IGF1R (hIGF1R) = target: T1, human IGF1R (hIGF1R) (Homo sapiens, UniProt P08069); test: IGF1R TR-FRET assay using peptide as the phosphoacceptor; type: biochemical; conditions: 10 μM ATP, 0.5 nM activated enzyme
T1 construct: containing amino acid residues 957-1367 of human IGF1R; made in house; host or cells: Sf9 cells, baculovirus
Procedure: A. IR and IGF1 R Time Resolved Fluorescence Resonance Energy Transfer (TR-FRET) Assay Using Peptide as the Phosphoacceptor
Substrate phosphorylation assays are carried out as follows:
The Source of Substrate Peptide
The biotinylated substrate peptide, (sequence-Biotin-aminohexyl-AEEEEY*[…]-NH2) SEQ. ID. 1 is purchased from QCB, Inc. (Hopkinton, Mass.). Purity is determined by HPLC. The calculated molecular mass of the peptide is 2216 dalton. Tyrosine phosphorylation by human IGF1R (hIGF1R) or human IR (hIR) occurs as indicated (Y*) in the peptide sequence described. Solid peptide sample is dissolved to approximately 1 mM in DMSO, aliquoted, and stored at −20° C. until use. True peptide concentration is determined by amino acid analysis.
The Source of Enzyme: • hIGF1R: GST-rTEV-IGF-1R (957-1367) containing amino acid residues 957-1367 of human IGF1R (as annotated by National Center for Biotechnology Information (NCBI) accession number NP_000866) is purified from a baculovirus expression system in Sf9 cells using Glutathione Sepharose 4FF column chromatography followed by Sephadex-200 size exclusion column chromatography. Enzyme purity of approximately 95% is achieved. Samples, in 25 mM Tris-HCl, 250 mM NaCl, 5% glycerol, 1 mM DTT, pH 7.5, are stored at −80° C. until use. • hIR: GST-rTEV-IR(979-1382) containing amino acid residues 979-1382 of human IR (as annotated by NCBI accession number NP_000199) is expressed and purified by the same process as hIGF1R. Enzyme purity of approximately 92% is achieved. Samples, in 25 mM Tris-HCl, 250 mM NaCl, 5% glycerol, 1 mM DTT, pH 7.5, are stored at −80° C. until use.
Activation of hIGF1R and hIR by Autophosphorylation: • hIGF1R: Activation of GST-rTEV-IGF-1R(957-1367) is achieved by a 4 minute incubation of hIGF1R (2.7 μM final) with 2 mM ATP in 50 mM HEPES, 20 mM MgCl2, 0.1 mg/mL BSA, at room temperature. Autophosphorylation is stopped by addition of EDTA (to 100 mM final). Aliquoted samples are flash frozen in liquid nitrogen and stored at −80° C. until use. • hIR: Activation of […] is achieved by a 5 minute incubation of hIR (2.7 μM final) with 2 mM ATP in 100 mM HEPES, 10 mM MgCl2, 0.1 mg/mL BSA, at room temperature. Autophosphorylation is stopped by addition of EDTA (to 100 mM final). Aliquoted samples are flash frozen in liquid nitrogen and stored at −80° C. until use. • Kinase Assay of Purified hIGF1R or hIR:
Assays are performed in 384-well (Greiner, Catalog No. 784076) microtiter plates. Reaction buffer (50 mM HEPES buffer, pH 7.5; 10 mM MgCl2; 3 mM DTT; 1 mM CHAPS; 0.1 mg/mL BSA) for peptide phosphorylation (10 μl volume) contained, in final concentrations, 500 nM biotinylated peptide substrate; 10 μM ATP; and purified, activated hIGF1R or hIR (0.5 nM). Some compounds were initially assayed against IGF1R in buffer without DTT or CHAPS. […] Compounds, titrated in DMSO, are evaluated at eleven concentrations ranging from 50 μM to 0.2 nM. […] No effect on activity relative to controls without DMSO is observed for hIGF1R or IR at these DMSO amounts. Reactions are incubated for 1 hour at room temperature and are stopped by a 5 μl addition of EDTA (to 33 mM). A further addition of 5 μl detection reagents (for final 7 nM Streptavidin-APC (PerkinElmer #CR130-150), 1 nM Europium-labeled anti-phosphotyrosine monoclonal antibody (PerkinElmer #AD0067), added in reaction buffer (without DTT), is required for signal generation. After 30 minutes, signal is read on PerkinElmer Viewlux microplate imager or Wallac Victor fluorometer.
Data were fitted to the curve described by:
y=((Vmax*x)/(K+x)) where • Vmax is the upper asymptote and • K is the IC50.
The results for each tested compound were recorded as pIC50 calculated as follows: […]

human IR (hIR) = target: T2, human IR (hIR) (Homo sapiens, UniProt P06213); test: IR TR-FRET assay using peptide as the phosphoacceptor; type: biochemical; conditions: 10 μM ATP, 0.5 nM activated enzyme
T2 construct: containing amino acid residues 979-1382 of human IR; GST (N); rTEV protease site (linker between GST and kinase) (N); made in house; host or cells: Sf9 cells, baculovirus (same process as hIGF1R)
Procedure: Reaction buffer (50 mM HEPES buffer, pH 7.5; 10 mM MgCl2; 3 mM DTT; 1 mM CHAPS; 0.1 mg/mL BSA) for peptide phosphorylation (10 μl volume) contained, in final concentrations, 500 nM biotinylated peptide substrate; 10 μM ATP; and purified, activated hIGF1R or hIR (0.5 nM). Some compounds were initially assayed against IGF1R in buffer without DTT or CHAPS. […] Compounds, titrated in DMSO, are evaluated at eleven concentrations ranging from 50 μM to 0.2 nM. […] Reactions are incubated for 1 hour at room temperature and are stopped by a 5 μl addition of EDTA (to 33 mM). A further addition of 5 μl detection reagents (for final 7 nM Streptavidin-APC (PerkinElmer #CR130-150), 1 nM Europium-labeled anti-phosphotyrosine monoclonal antibody (PerkinElmer #AD0067), added in reaction buffer (without DTT), is required for signal generation. After 30 minutes, signal is read on PerkinElmer Viewlux microplate imager or Wallac Victor fluorometer.
The data for compound concentration responses were plotted as % Inhibition, calculated with the data reduction formula 100*(1-[(U1-C2)/(C1-C2)]), versus concentration of compound, where • U is the unknown value, • C1 is the average control value obtained for DMSO only, and
C2 is the average control value obtained for reactions stopped with EDTA at t=0.

COLO205 (colon) = test: Inhibition of cell proliferation, CellTiter-Glo, COLO205; type: cell-based; conditions: Homo sapiens, COLO 205, 72 h
Procedure, shortened: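 Exponentially growing COLO205 cells in medium with 10% FBS were plated below 2000 cells/well at 37 °C, 5% CO2. Untreated wells served as controls.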

[1] = tested on: NCI-H929 (multiple myeloma); test: Inhibition of cell proliferation, CellTiter-Glo, NCI-H929; type: cell-based; conditions: Homo sapiens, 72 h
Procedure, shortened: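 Cells were grown in medium with 10% FBS at 37° C, 5% CO2. Cell number was read as CellTiter-Glo luminescence (cellular ATP), with untreated wells as control.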

[2] = target: T3, human IGF-1R (NIH-3T3 cells over expressing human IGF-1R) (Homo sapiens, UniProt P08069); test: IGF-1R cellular autophosphorylation (DELFIA); type: cell-based; conditions: IGF-1 stimulated
T3 construct: expressed in transfected cells; host or cells: NIH-3T3 (mouse fibroblasts)
Procedure, shortened: (§1)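 Autophosphorylation of IGF-1R or IR is measured in NIH-3T3 lines overexpressing each human receptor after 2 h compound pretreatment and a 15 min ligand challenge (IGF-1 30 ng/mL; insulin 3 ug/mL). Fluorescence is normalised to 100% stimulation.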

[3] = target: T4, IR (NIH-3T3 cells over expressing human IGF-1R or IR) (Homo sapiens, UniProt P06213); test: IR cellular autophosphorylation (DELFIA); type: cell-based; conditions: NIH-3T3 cells over expressing IR, insulin stimulated
T4 construct: expressed in transfected cells; host or cells: NIH-3T3 (mouse fibroblasts)
Procedure, shortened: as §1

T3 sequence (P08069 31-1367): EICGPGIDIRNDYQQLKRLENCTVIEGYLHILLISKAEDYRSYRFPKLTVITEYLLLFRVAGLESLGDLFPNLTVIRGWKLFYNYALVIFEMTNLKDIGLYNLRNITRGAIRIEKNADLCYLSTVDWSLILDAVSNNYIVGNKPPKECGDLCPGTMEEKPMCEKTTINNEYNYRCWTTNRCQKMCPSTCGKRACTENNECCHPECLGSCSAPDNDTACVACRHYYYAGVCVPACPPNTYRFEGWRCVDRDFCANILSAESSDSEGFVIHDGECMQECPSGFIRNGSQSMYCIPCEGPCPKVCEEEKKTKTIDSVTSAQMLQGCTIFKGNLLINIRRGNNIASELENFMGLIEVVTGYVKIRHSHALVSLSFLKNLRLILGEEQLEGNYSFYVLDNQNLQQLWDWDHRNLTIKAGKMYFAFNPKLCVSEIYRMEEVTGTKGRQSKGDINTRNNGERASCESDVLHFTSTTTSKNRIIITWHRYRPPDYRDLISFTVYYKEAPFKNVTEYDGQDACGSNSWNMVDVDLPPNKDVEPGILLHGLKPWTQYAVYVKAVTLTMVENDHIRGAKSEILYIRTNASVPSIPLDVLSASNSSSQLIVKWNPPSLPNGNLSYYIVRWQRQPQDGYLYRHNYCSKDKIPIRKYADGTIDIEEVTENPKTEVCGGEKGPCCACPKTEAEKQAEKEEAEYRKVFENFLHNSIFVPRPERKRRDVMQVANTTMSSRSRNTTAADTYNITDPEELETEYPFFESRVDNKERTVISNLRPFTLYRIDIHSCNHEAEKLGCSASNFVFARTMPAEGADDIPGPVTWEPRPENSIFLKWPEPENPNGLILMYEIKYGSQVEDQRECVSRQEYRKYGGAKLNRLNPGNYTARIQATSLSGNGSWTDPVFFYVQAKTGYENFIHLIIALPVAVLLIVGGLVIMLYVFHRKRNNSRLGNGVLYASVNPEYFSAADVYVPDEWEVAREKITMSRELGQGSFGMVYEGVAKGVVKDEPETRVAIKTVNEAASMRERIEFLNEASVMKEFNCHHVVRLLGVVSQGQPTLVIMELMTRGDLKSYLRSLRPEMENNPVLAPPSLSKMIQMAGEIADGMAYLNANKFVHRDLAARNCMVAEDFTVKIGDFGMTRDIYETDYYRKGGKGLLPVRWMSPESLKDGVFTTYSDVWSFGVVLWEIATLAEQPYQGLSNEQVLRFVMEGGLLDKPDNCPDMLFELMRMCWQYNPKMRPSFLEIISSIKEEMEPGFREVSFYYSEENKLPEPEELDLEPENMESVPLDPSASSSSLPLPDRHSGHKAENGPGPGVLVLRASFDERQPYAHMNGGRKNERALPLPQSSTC
T2 sequence (P06213 979-1382): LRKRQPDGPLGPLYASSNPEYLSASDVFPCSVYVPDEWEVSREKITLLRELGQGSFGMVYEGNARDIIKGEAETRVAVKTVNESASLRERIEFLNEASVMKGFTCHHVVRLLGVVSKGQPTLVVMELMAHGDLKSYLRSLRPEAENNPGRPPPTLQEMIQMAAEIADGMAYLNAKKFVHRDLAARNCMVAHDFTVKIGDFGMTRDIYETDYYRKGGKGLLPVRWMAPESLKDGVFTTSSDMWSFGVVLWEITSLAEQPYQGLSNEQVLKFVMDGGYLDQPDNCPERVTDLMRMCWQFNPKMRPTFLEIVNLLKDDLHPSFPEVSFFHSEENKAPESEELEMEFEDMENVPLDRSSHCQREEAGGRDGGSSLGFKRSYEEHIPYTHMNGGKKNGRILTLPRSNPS
T1 sequence (P08069 957-1367): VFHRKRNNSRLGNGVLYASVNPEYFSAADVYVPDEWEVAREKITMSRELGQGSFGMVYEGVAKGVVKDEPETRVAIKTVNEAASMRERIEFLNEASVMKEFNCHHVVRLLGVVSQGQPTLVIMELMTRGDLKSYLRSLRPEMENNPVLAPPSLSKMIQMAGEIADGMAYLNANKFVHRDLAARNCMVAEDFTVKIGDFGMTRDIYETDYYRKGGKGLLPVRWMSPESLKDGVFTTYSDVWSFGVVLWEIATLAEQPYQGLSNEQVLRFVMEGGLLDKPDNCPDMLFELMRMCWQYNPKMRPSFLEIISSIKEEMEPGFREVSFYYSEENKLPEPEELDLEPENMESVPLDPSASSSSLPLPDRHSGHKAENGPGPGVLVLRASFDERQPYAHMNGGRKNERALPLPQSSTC
T4 sequence (P06213 28-1382): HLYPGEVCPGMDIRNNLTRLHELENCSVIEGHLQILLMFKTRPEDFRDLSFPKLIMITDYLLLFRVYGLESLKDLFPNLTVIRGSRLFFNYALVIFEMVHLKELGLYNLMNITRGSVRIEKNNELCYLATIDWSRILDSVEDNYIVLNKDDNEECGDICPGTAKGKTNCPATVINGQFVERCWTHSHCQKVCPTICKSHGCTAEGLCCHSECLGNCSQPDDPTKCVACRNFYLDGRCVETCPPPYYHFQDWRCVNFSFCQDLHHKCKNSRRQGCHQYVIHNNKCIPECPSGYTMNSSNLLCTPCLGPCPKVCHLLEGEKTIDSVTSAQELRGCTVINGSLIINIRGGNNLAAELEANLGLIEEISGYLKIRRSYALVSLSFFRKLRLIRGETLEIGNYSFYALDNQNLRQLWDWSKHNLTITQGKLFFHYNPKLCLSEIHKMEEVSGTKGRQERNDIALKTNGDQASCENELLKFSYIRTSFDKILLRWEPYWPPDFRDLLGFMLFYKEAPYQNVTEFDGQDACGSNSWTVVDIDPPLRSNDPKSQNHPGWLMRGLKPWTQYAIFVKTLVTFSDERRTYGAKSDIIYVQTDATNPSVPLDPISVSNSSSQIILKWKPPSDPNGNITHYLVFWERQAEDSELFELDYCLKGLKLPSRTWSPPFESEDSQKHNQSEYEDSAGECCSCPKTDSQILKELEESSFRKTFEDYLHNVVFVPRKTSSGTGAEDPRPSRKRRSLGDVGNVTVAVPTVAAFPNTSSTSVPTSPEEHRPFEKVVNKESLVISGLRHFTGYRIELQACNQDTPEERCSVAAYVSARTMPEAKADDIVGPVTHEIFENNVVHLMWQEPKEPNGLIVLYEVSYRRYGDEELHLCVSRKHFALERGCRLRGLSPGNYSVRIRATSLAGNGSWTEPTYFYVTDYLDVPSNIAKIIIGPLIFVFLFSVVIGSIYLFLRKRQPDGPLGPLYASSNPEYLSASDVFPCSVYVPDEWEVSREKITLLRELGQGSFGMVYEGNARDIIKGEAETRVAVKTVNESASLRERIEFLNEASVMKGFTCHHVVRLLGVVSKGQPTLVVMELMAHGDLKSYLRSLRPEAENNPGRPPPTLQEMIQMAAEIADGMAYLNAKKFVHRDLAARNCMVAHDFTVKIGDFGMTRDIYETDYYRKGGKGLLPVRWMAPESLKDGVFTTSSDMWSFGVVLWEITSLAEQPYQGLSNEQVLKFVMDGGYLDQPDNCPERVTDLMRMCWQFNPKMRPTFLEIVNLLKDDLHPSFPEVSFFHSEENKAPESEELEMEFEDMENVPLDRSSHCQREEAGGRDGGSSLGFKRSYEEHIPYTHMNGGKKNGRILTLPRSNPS

| Structure (SMILES) | IGF-1R pIC50 (human IGF1R (hIGF1R)) | IR pIC50 (human IR (hIR)) | IC50 (COLO205 (colon)) | IC50 [1] | IC50 [2] | IC50 [3] | IC50 (human IGF1R (hIGF1R); read-out: IGF-1R pIC50 (converted)) | IC50 (human IR (hIR); read-out: IR pIC50 (converted)) |
| --- | --- | --- | --- | --- | --- | --- | --- | --- |
| CCOc1cc(N2CCC(CCS(C)(=O)=O)CC2)c(C)cc1Nc1nccc(-c2c(-c3ccc(OC(C)C)c(C(=O)Nc4c(F)cccc4F)c3)nc3ccccn23)n1 [Example 215] | ++ (at least one average pIC50 measurement greater than 6 against the kinase tested but no average measurement greater than pIC50 of 7) | ++ (at least one average pIC50 measurement greater than 6 against the kinase tested but no average measurement greater than pIC50 of 7) | < 250 nM | < 250 nM | < 100 nM | < 100 nM | – | – |
| CCOc1ccc(-c2nc3ccccn3c2-c2ccnc(Nc3cc(Cl)c(N4CCN(CCS(C)(=O)=O)CC4)cc3OC)n2)cc1C(=O)Nc1c(F)cccc1F [Example 212] | – | – | < 250 nM | < 250 nM | < 100 nM | < 100 nM | < 100 nM | < 100 nM |
